We go through five molecules from US20100317528A1, “HERBICIDE CONTAINING BENZOYLPYRAZOLE COMPOUND” (ISHIHARA SANGYO KAISHA, LTD., priority 2006, published 2010).

Format in all cases: in vivo
Test [1] deals with soybean (Glycine max Merr.). Kind of test: Test Example 1: foliar treatment, upland pot test, soybean. An excerpt: (§1) Upland field soil was put into a 1/170,000 hectare pot, and seeds of various plants were sown. When the respective plants reached predetermined leaf stage ((1) barnyardgrass (Echinochloa crus-galli L.): 1.0 to 3.0 leaf stage, (2) crabgrass (Digitaria sanguinalis L.): 1.0 to 3.0 leaf stage, (3) green foxtail (Setaria viridis L.): 1.0 to 3.0 leaf stage, (4) redroot pigweed (Amaranthus retroflexus L.): cotyledon stage to 2.0 leaf stage, (5) prickly sida (Sida spinosa L.): cotyledon stage to 1.0 leaf stage, (6) velvetleaf (Abutilon theophrasti MEDIC.): 0.1 to 1.5 leaf stage, (7) rice (Oryza sativa L.): 1.0 to 3.0 leaf stage, (8) wheat (Triticum spp.): 1.7 to 3.4 leaf stage, (9) corn (Zea mays L.): 2.0 to 3.5 leaf stage, (10) soybean (Glycine max Merr.): primary leaf stage to 0.4 leaf stage), wettable powders or emulsifiable concentrates of the compounds of the above formula (I) prepared in accordance with a conventional preparation method, were weighed so that the active ingredients became the prescribed amounts, and diluted with water in an amount corresponding to 500 liter per 1 hectare (containing 0.1 vol % of “KUSARINOH”, manufactured by NIHON NOHYAKU CO., LTD. as an agricultural spreader). The spray solutions thus prepared were applied for foliar treatment by a small sprayer.
(§2) On the 17th to 25th day after application, the state of growth of the respective plants was visually observed, and the herbicidal effect was evaluated by a growth inhibition rate (%) of 0 (equivalent to the non-treated area) to 100% (complete kill).

Test [2] has as its system rice (Oryza sativa L.). Kind of test: Test Example 1: foliar treatment, upland pot test, rice.
From the text: as §1, §2

For test [3], the system named is redroot pigweed (Amaranthus retroflexus L.). The experiment in a line: Test Example 2: soil application on the day after sowing, redroot pigweed. Conditions: 250 g/ha active ingredient, observed 19th to 28th day after application. An excerpt:
(§3) Upland field soil was put into a 1/170,000 hectare pot, and seeds of various plants barnyardgrass (Echinochloa crus-galli L.), crabgrass (Digitaria sanquinalis L.), green foxtail (Setaria viridis L.), redroot pigweed (Amaranthus retroflexus L.), prickly sida (Sida spinosa L.), velvetleaf (Abutilon theophrasti MEDIC.), rice (Oryza sativa L.), wheat (Triticum spp.), corn (Zea mays L.) and soybean (Glycine max Merr.)) were sown. On the day after sowing, wettable powders or emulsifiable concentrates of the compounds of the above formula (I) prepared in accordance with a conventional preparation method, were weighed so that the active ingredients became the prescribed amounts, and diluted with water in an amount corresponding to 500 liter per 1 hectare, followed by soil application with a small sprayer.
(§4) On the 19th to 28th day after the application, the state of growth of the respective plants was visually observed, and the herbicidal effect was evaluated by a growth inhibition rate (%) of from 0 (equivalent to the non-treated area) to 100% (complete kill).

Test [4] relates to green foxtail (Setaria viridis L.). The experiment in a line: Test Example 2: soil application on the day after sowing, green foxtail. Conditions: 250 g/ha active ingredient, observed 19th to 28th day after application.
From the text: as §3, §4

The subject of test [5] is crabgrass (Digitaria sanquinalis L.). The experiment in a line: Test Example 2: soil application on the day after sowing, crabgrass. Conditions: 250 g/ha active ingredient, observed 19th to 28th day after application.
From the text: as §3, §4

In test [6] the test system is prickly sida (Sida spinosa L.). The experiment in a line: Test Example 2: soil application on the day after sowing, prickly sida. The settings on record: 250 g/ha active ingredient, observed 19th to 28th day after application.
From the text: as §3, §4

Test [7] concerns corn (Zea mays L.). Kind of test: Test Example 2: soil application on the day after sowing, corn. Conditions: 250 g/ha active ingredient, observed 19th to 28th day after application.
From the text: as §3, §4

The test system of test [8] is redroot pigweed (Amaranthus retroflexus L.). The experiment in a line: Test Example 1: foliar treatment, upland pot test, redroot pigweed. The settings on record: for Growth inhibition rate (%) Redroot pigweed: 31 g/ha active ingredient, observed 17th to 25th day after application.
From the text: as §1, §2

The test system of test [9] is corn (Zea mays L.). The experiment in a line: Test Example 1: foliar treatment, upland pot test, corn.
From the text: as §1, §2

The test system of test [10] is barnyardgrass (Echinochloa crus-galli L.). Kind of test: Test Example 2: soil application on the day after sowing, barnyardgrass. The settings on record: 250 g/ha active ingredient, observed 19th to 28th day after application.
From the text: as §3, §4

For test [11], the system named is velvetleaf (Abutilon theophrasti MEDIC.). The experiment in a line: Test Example 2: soil application on the day after sowing, velvetleaf. The settings on record: 250 g/ha active ingredient, observed 19th to 28th day after application.
From the text: as §3, §4

The subject of test [12] is barnyardgrass (Echinochloa crus-galli L.). The experiment in a line: Test Example 1: foliar treatment, upland pot test, barnyardgrass.
From the text: as §1, §2

For test [13], the system named is soybean (Glycine max Merr.). Kind of test: Test Example 2: soil application on the day after sowing, soybean. The settings on record: 250 g/ha active ingredient, observed 19th to 28th day after application.
From the text: as §3, §4

Test [14] relates to rice (Oryza sativa L.). Kind of test: Test Example 2: soil application on the day after sowing, rice. Conditions: 250 g/ha active ingredient, observed 19th to 28th day after application.
From the text: as §3, §4

Test [15] deals with crabgrass (Digitaria sanguinalis L.). The experiment in a line: Test Example 1: foliar treatment, upland pot test, crabgrass.
From the text: as §1, §2

Test [16] concerns prickly sida (Sida spinosa L.). Kind of test: Test Example 1: foliar treatment, upland pot test, prickly sida. Conditions: for Growth inhibition rate (%) Prickly sida: 31 g/ha active ingredient, observed 17th to 25th day after application.
From the text: as §1, §2

The test system of test [17] is green foxtail (Setaria viridis L.). Kind of test: Test Example 1: foliar treatment, upland pot test, green foxtail.
From the text: as §1, §2

Test [18] relates to velvetleaf (Abutilon theophrasti MEDIC.). Kind of test: Test Example 1: foliar treatment, upland pot test, velvetleaf.
From the text: as §1, §2

For test [19], the system named is wheat (Triticum spp.). The experiment in a line: Test Example 1: foliar treatment, upland pot test, wheat. The settings on record: Triticum, 63 g/ha active ingredient, observed 21st day after application, read-out: Growth inhibition rate (%) Wheat.
From the text: as §1, §2

[20] abbreviates: 31 g/ha active ingredient, observed 17th to 25th day after application.

Turning to `Cc1c(C(=O)c2cnn(C)c2O)ccc(S(C)(=O)=O)c1COCC(F)(F)F` [compound 160], the “Growth inhibition rate (%) Soybean” value turned out to be 98% in test [1] (setting [20]) and 50% in test [13]. For the same molecule, the results for the “Growth inhibition rate (%) Rice” value in test [2] (setting [20]) and in [14] were 50% and 100%, respectively. For the same molecule, the “Growth inhibition rate (%) Redroot pigweed” value is given as 100% in [3] and 98% in test [8]. Also, the “Growth inhibition rate (%) Green foxtail” value in test [4] came out at 100%; in [17] (setting [20]), 75%. Also, the “Growth inhibition rate (%) Crabgrass” value in test [5] and in [15] (setting [20]) was 100% throughout. Further, the “Growth inhibition rate (%) Prickly sida” value in test [6] worked out at 95%; in test [16], 60%. For the same molecule, the “Growth inhibition rate (%) Corn” value in test [7] and in [9] (setting [20]) was 0% each time. In addition, the entries for the “Growth inhibition rate (%) Barnyardgrass” value in [10] and in [12] (setting [20]) were 100% and 90%, respectively. The “Growth inhibition rate (%) Velvetleaf” value in test [11] and in [18] (setting [20]) was 100% throughout.
`COC(C)COc1c(S(C)(=O)=O)ccc(C(=O)c2cnn(C)c2O)c1C` (stereo not drawn) [compound 227]: the “Growth inhibition rate (%) Soybean” value amounted to 100% in test [1] (setting [20]) and 10% in test [13]. In addition, the “Growth inhibition rate (%) Rice” value in [2] (setting [20]) is listed as 80%; in test [14], 100%. For the same molecule, the “Growth inhibition rate (%) Redroot pigweed” value in [3] and in test [8] was 100% each time. In addition, the “Growth inhibition rate (%) Green foxtail” value was 100% in test [4] and 98% in test [17] (setting [20]). Besides, the “Growth inhibition rate (%) Crabgrass” value in test [5] is 100%; in [15] (setting [20]), 60%. Besides, the “Growth inhibition rate (%) Prickly sida” value is reported as 98% in test [6] and 90% in [16]. In addition, the “Growth inhibition rate (%) Corn” value in [7] and in test [9] (setting [20]) was 0% in each case. Moreover, the results for the “Growth inhibition rate (%) Barnyardgrass” value in test [10] and in [12] (setting [20]) were 100% and 95%, respectively. The “Growth inhibition rate (%) Velvetleaf” value in test [11] and in [18] (setting [20]) was 100% in each case.
For orientation: inhibition means the percentage by which the read-out fell short of the control. With `CCn1ncc(C(=O)c2ccc(S(C)(=O)=O)c(OCC3OCCO3)c2Cl)c1O` [compound 250], the inhibition at 63 g/ha in [1] (Glycine max, 63 g/ha active ingredient, observed 21st day after application, read-out: Growth inhibition rate (%) Soybean) was 90%; in test [19], 0%; in test [2] (Oryza sativa, 63 g/ha active ingredient, observed 21st day after application, read-out: Growth inhibition rate (%) Rice) it was 0%; in [8] (Amaranthus retroflexus, 63 g/ha active ingredient, observed 21st day after application, read-out: Growth inhibition rate (%) Redroot pigweed) it was 100%; in test [9] (Zea mays, 63 g/ha active ingredient, observed 21st day after application, read-out: Growth inhibition rate (%) Corn), 10%; in test [12] (Echinochloa crus-galli, 63 g/ha active ingredient, observed 21st day after application, read-out: Growth inhibition rate (%) Barnyardgrass) it was 100%. For the same molecule, the inhibition at 63 g/ha in test [15] (Digitaria sanguinalis, 63 g/ha active ingredient, observed 21st day after application, read-out: Growth inhibition rate (%) Crabgrass) was 98%; in test [16] (Sida spinosa, 63 g/ha active ingredient, observed 21st day after application, read-out: Growth inhibition rate (%) Prickly sida) it was 60%; in test [17] (Setaria viridis, 63 g/ha active ingredient, observed 21st day after application, read-out: Growth inhibition rate (%) Green foxtail), 80%; in [18] (Abutilon theophrasti, 63 g/ha active ingredient, observed 21st day after application, read-out: Growth inhibition rate (%) Velvetleaf), 95%.
`Cc1c(C(=O)c2cnn(C)c2O)ccc(S(C)(=O)=O)c1CC1OCCO1` [compound 256]: the inhibition at 31 g/ha in [1] (Glycine max, 31 g/ha active ingredient, observed 17th to 25th day after application, read-out: Growth inhibition rate (%) Soybean) was found to be 80%; in [2] (Oryza sativa, 31 g/ha active ingredient, observed 17th to 25th day after application, read-out: Growth inhibition rate (%) Rice) it was 60%; in test [9] (Zea mays, 31 g/ha active ingredient, observed 17th to 25th day after application, read-out: Growth inhibition rate (%) Corn), 0%; in test [12] (Echinochloa crus-galli, 31 g/ha active ingredient, observed 17th to 25th day after application, read-out: Growth inhibition rate (%) Barnyardgrass), 100%; in [15] (Digitaria sanguinalis, 31 g/ha active ingredient, observed 17th to 25th day after application, read-out: Growth inhibition rate (%) Crabgrass) it was 90%; in test [17] (Setaria viridis, 31 g/ha active ingredient, observed 17th to 25th day after application, read-out: Growth inhibition rate (%) Green foxtail), 70%. The inhibition at 31 g/ha in test [18] (Abutilon theophrasti, 31 g/ha active ingredient, observed 17th to 25th day after application, read-out: Growth inhibition rate (%) Velvetleaf) came out at 100%. The inhibition at 250 g/ha turned out to be 95% in [4] (Setaria viridis, read-out: Growth inhibition rate (%) Green foxtail); 100% in test [5] (Digitaria, read-out: Growth inhibition rate (%) Crabgrass); 60% in test [6] (Sida spinosa, read-out: Growth inhibition rate (%) Prickly sida); 0% in test [7] (Zea mays, read-out: Growth inhibition rate (%) Corn); 100% in [10] (Echinochloa crus-galli, read-out: Growth inhibition rate (%) Barnyardgrass); 80% in test [11] (Abutilon theophrasti, read-out: Growth inhibition rate (%) Velvetleaf). Moreover, in [14] (Oryza sativa, read-out: Growth inhibition rate (%) Rice), the inhibition at 250 g/ha stood at 80%.
Take `Cc1c(C(=O)c2cnn(C)c2O)ccc(S(C)(=O)=O)c1COC(C)C` [compound 257]: the “Growth inhibition rate (%) Soybean” value is reported as 70% in [1] (setting [20]) and 0% in test [13]. For the same molecule, the “Growth inhibition rate (%) Rice” value in test [2] (setting [20]) and in test [14] was 90% throughout. For the same molecule, the “Growth inhibition rate (%) Redroot pigweed” value in [3] is 98%; in test [8], 85%. Besides, the “Growth inhibition rate (%) Green foxtail” value in test [4] was 60%; in [17] (setting [20]), 98%. In addition, the “Growth inhibition rate (%) Crabgrass” value in [5] worked out at 100%; in test [15] (setting [20]) it was 90%. The figures for the “Growth inhibition rate (%) Prickly sida” value in [6] and in [16] were 70% and 75%, respectively. The “Growth inhibition rate (%) Corn” value in test [7] and in [9] (setting [20]) was 0% throughout. Besides, the “Growth inhibition rate (%) Barnyardgrass” value stood at 90% in [10] and 100% in [12] (setting [20]). The results for the “Growth inhibition rate (%) Velvetleaf” value in test [11] and in test [18] (setting [20]) were 80% and 98%, respectively.
